# Laboratory results reported in ChEMBL document CHEMBL4392857, “Isolation, Chiral-Phase Resolution, and Determination of the Absolute Configurations of a Complete Series of Stereoisomers of a Rearranged Acetophenone with Three Stereocenters” (2019).
# Test system: HUVEC
# Experiment: Cytoprotective effect against high glucose-induced oxidative stress in HUVEC assessed as cell viability at 1 uM incubated by MTT assay (reference value: 72.1 to 77.9%)
# Format: functional
# Conditions: Homo sapiens, read-out: Activity
row,SMILES,viability at 1 µM
1,COC(=O)[C@@]1(O)C(=O)[C@@]2(CC=C(C)C)C[C@H](O)C(C)(C)OC2=C1C(C)=O,79.9%
2,COC(=O)[C@@]1(O)C(=O)[C@@]2(CC=C(C)C)C[C@@H](O)C(C)(C)OC2=C1C(C)=O,101%
3,COC(=O)[C@]1(O)C(=O)[C@]2(CC=C(C)C)C[C@@H](O)C(C)(C)OC2=C1C(C)=O,103%
4,COC(=O)[C@@]1(O)C(=O)[C@]2(CC=C(C)C)C[C@@H](O)C(C)(C)OC2=C1C(C)=O,75.6%
5,COC(=O)[C@@]1(O)C(=O)[C@]2(CC=C(C)C)C[C@H](O)C(C)(C)OC2=C1C(C)=O,103%
6,COC(=O)[C@]1(O)C(=O)[C@@]2(CC=C(C)C)C[C@@H](O)C(C)(C)OC2=C1C(C)=O,79.9%
7,COC(=O)[C@]1(O)C(=O)[C@]2(CC=C(C)C)C[C@H](O)C(C)(C)OC2=C1C(C)=O,94.2%
8,COC(=O)[C@]1(O)C(=O)[C@@]2(CC=C(C)C)C[C@H](O)C(C)(C)OC2=C1C(C)=O,71.7%
9,Oc1ccc(/C=C/c2cc(O)cc(O)c2)cc1 [RESVERATROL],86.4%

# Test system: HUVEC
# Experiment: Cytoprotective effect against high glucose-induced oxidative stress in HUVEC assessed as cell viability at 5 uM incubated by MTT assay (reference value: 72.1 to 77.9%)
# Format: functional
# Conditions: Homo sapiens, read-out: Activity
row,SMILES,viability at 5 µM
1,COC(=O)[C@@]1(O)C(=O)[C@@]2(CC=C(C)C)C[C@H](O)C(C)(C)OC2=C1C(C)=O,82%
2,COC(=O)[C@@]1(O)C(=O)[C@@]2(CC=C(C)C)C[C@@H](O)C(C)(C)OC2=C1C(C)=O,101%
3,COC(=O)[C@]1(O)C(=O)[C@]2(CC=C(C)C)C[C@@H](O)C(C)(C)OC2=C1C(C)=O,104%
4,COC(=O)[C@@]1(O)C(=O)[C@]2(CC=C(C)C)C[C@@H](O)C(C)(C)OC2=C1C(C)=O,62.7%
5,COC(=O)[C@@]1(O)C(=O)[C@]2(CC=C(C)C)C[C@H](O)C(C)(C)OC2=C1C(C)=O,104%
6,COC(=O)[C@]1(O)C(=O)[C@@]2(CC=C(C)C)C[C@@H](O)C(C)(C)OC2=C1C(C)=O,82%
7,COC(=O)[C@]1(O)C(=O)[C@]2(CC=C(C)C)C[C@H](O)C(C)(C)OC2=C1C(C)=O,93%
8,COC(=O)[C@]1(O)C(=O)[C@@]2(CC=C(C)C)C[C@H](O)C(C)(C)OC2=C1C(C)=O,65.1%
9,Oc1ccc(/C=C/c2cc(O)cc(O)c2)cc1 [RESVERATROL],103%
